Assay results: patent US12077503B2, “Substituted cyclic amides and their use as herbicides” (FMC CORPORATION, priority 2015, dated 2024)

Key:
Assay type in all cases: in vivo
[1] = tested on: barnyardgrass (Echinochloa crus-galli); test: Test G Pre-Emergence Protocol; conditions: Echinochloa crus-galli, pre-emergence, 312 h, evaluated after 13 days; for pest or weed control at 15.625 g/ha: 15.625 g ai/ha, read-out: Barnyard grass damage rating (100=total damage to plant; 0=no damage to plant); for pest or weed control at 62.5 g/ha: 62.5 g ai/ha, 100=total damage to plant, 0=no damage to plant, read-out: plant damage rating, Barnyardgrass; for pest or weed control at 250 g/ha: 250 g ai/ha, read-out: Barnyardgrass damage rating (100=total damage to plant; 0=no damage to plant)
Outline: (§1)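 One day after sowing, pots are treated with a spray of test compound formulated in acetone/water 50:50 plus 0.5% Tween 20, giving 15.625, 62.5 or 250 g/ha. Evaluation on a 0–100 damage scale follows 13 days of glasshouse growth.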

[2] = tested on: corn (Zea mays); test: Test G Pre-Emergence Protocol; conditions: Zea mays, pre-emergence, 312 h, evaluated after 13 days; for plant injury at 15.625 g/ha: 15.625 g ai/ha; for plant injury at 15.625 g/ha / plant injury at 250 g/ha: read-out: Corn damage rating (100=total damage to plant; 0=no damage to plant); for plant injury at 62.5 g/ha: 62.5 g ai/ha, 100=total damage to plant, 0=no damage to plant, read-out: plant damage rating, Corn; for plant injury at 250 g/ha: 250 g ai/ha
Outline: as §1

[3] = tested on: giant foxtail (Setaria faberi); test: Test G Pre-Emergence Protocol; conditions: Setaria faberi, pre-emergence, 312 h, evaluated after 13 days; for pest or weed control at 15.625 g/ha: 15.625 g ai/ha; for pest or weed control at 15.625 g/ha / pest or weed control at 250 g/ha: read-out: Foxtail, Giant damage rating (100=total damage to plant; 0=no damage to plant); for pest or weed control at 62.5 g/ha: 62.5 g ai/ha, 100=total damage to plant, 0=no damage to plant, read-out: plant damage rating, Foxtail, Giant; for pest or weed control at 250 g/ha: 250 g ai/ha
Outline: as §1

[4] = tested on: ivy-leaved morning glory (Ipomoea hederacea); test: Test G Pre-Emergence Protocol; conditions: Ipomoea, pre-emergence, 312 h, evaluated after 13 days; for pest or weed control at 15.625 g/ha: 15.625 g ai/ha, read-out: Morning-glory, Ivy-leaved damage rating (100=total damage to plant; 0=no damage to plant); for pest or weed control at 62.5 g/ha: 62.5 g ai/ha, 100=total damage to plant, 0=no damage to plant, read-out: plant damage rating, Morningglory, Ivy-leaved; for pest or weed control at 250 g/ha: 250 g ai/ha, read-out: Morningglory, Ivy-leaved damage rating (100=total damage to plant; 0=no damage to plant)
Outline: as §1

[5] = tested on: redroot pigweed (Amaranthus retroflexus); test: Test G Pre-Emergence Protocol; conditions: Amaranthus retroflexus, pre-emergence, 312 h, evaluated after 13 days; for pest or weed control at 15.625 g/ha: 15.625 g ai/ha; for pest or weed control at 15.625 g/ha / pest or weed control at 250 g/ha: read-out: Pigweed, Redroot damage rating (100=total damage to plant; 0=no damage to plant); for pest or weed control at 62.5 g/ha: 62.5 g ai/ha, 100=total damage to plant, 0=no damage to plant, read-out: plant damage rating, Pigweed, Redroot; for pest or weed control at 250 g/ha: 250 g ai/ha
Outline: as §1

[6] = tested on: velvetleaf (Abutilon theophrasti); test: Test G Pre-Emergence Protocol; conditions: Abutilon theophrasti, pre-emergence, 312 h, evaluated after 13 days; for pest or weed control at 15.625 g/ha: 15.625 g ai/ha; for pest or weed control at 15.625 g/ha / pest or weed control at 250 g/ha: read-out: Velvetleaf damage rating (100=total damage to plant; 0=no damage to plant); for pest or weed control at 62.5 g/ha: 62.5 g ai/ha, 100=total damage to plant, 0=no damage to plant, read-out: plant damage rating, Velvetleaf; for pest or weed control at 250 g/ha: 250 g ai/ha
Outline: as §1

[7] = tested on: barnyardgrass (Echinochloa crus-galli); test: Test G Post-Emergence Protocol; conditions: Echinochloa crus-galli, post-emergence, 312 h; for pest or weed control at 15.625 g/ha: 15.625 g ai/ha, evaluated after 13 days (100=total damage to plant; 0=no damage to plant), read-out: Barnyardgrass damage rating; for pest or weed control at 62.5 g/ha: 62.5 g ai/ha, read-out: Barnyardgrass damage rating (100=total damage to plant; 0=no damage to plant); for pest or weed control at 62.5 g/ha / pest or weed control at 250 g/ha: evaluated after 13 days; for pest or weed control at 250 g/ha: 250 g ai/ha, read-out: damage to plant, Barnyardgrass (100=total damage to plant; 0=no damage to plant)
Outline: (§2)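 A glasshouse post-emergence test: 8-day-old plants sprayed at 15.625, 62.5 or 250 g/ha, then grown at 24/16 °C day/night with 14 h light and 65% humidity. Damage rated 13 days later, 0–100.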

[8] = tested on: corn (Zea mays); test: Test G Post-Emergence Protocol; conditions: Zea mays, post-emergence, 312 h; for plant injury at 15.625 g/ha: 15.625 g ai/ha, evaluated after 13 days (100=total damage to plant; 0=no damage to plant), read-out: Corn damage rating; for plant injury at 62.5 g/ha: 62.5 g ai/ha, read-out: Corn damage rating (100=total damage to plant; 0=no damage to plant); for plant injury at 62.5 g/ha / plant injury at 250 g/ha: evaluated after 13 days; for plant injury at 250 g/ha: 250 g ai/ha, read-out: damage to plant, Corn (100=total damage to plant; 0=no damage to plant)
Outline: as §2

[9] = tested on: giant foxtail (Setaria faberi); test: Test G Post-Emergence Protocol; conditions: Setaria faberi, post-emergence, 312 h; for pest or weed control at 15.625 g/ha: 15.625 g ai/ha, evaluated after 13 days (100=total damage to plant; 0=no damage to plant), read-out: Foxtail, Giant damage rating; for pest or weed control at 62.5 g/ha: 62.5 g ai/ha, read-out: Foxtail, Giant damage rating (100=total damage to plant; 0=no damage to plant); for pest or weed control at 62.5 g/ha / pest or weed control at 250 g/ha: evaluated after 13 days; for pest or weed control at 250 g/ha: 250 g ai/ha, read-out: damage to plant, Foxtail, Giant (100=total damage to plant; 0=no damage to plant)
Outline: as §2

[10] = tested on: ivy-leaved morning glory (Ipomoea hederacea); test: Test G Post-Emergence Protocol; conditions: Ipomoea, post-emergence, 312 h; for pest or weed control at 15.625 g/ha: 15.625 g ai/ha, evaluated after 13 days (100=total damage to plant; 0=no damage to plant), read-out: Morningglory, Ivy-leaved damage rating; for pest or weed control at 62.5 g/ha: 62.5 g ai/ha, read-out: Morningglory, Ivy-leaved damage rating (100=total damage to plant; 0=no damage to plant); for pest or weed control at 62.5 g/ha / pest or weed control at 250 g/ha: evaluated after 13 days; for pest or weed control at 250 g/ha: 250 g ai/ha, read-out: damage to plant, Morningglory, Ivy-leaved (100=total damage to plant; 0=no damage to plant)
Outline: as §2

[11] = tested on: redroot pigweed (Amaranthus retroflexus); test: Test G Post-Emergence Protocol; conditions: Amaranthus retroflexus, post-emergence, 312 h; for pest or weed control at 15.625 g/ha: 15.625 g ai/ha, evaluated after 13 days (100=total damage to plant; 0=no damage to plant), read-out: Pigweed, Redroot damage rating; for pest or weed control at 62.5 g/ha: 62.5 g ai/ha, read-out: Pigweed, Redroot damage rating (100=total damage to plant; 0=no damage to plant); for pest or weed control at 62.5 g/ha / pest or weed control at 250 g/ha: evaluated after 13 days; for pest or weed control at 250 g/ha: 250 g ai/ha, read-out: damage to plant, Pigweed, Redroot (100=total damage to plant; 0=no damage to plant)
Outline: as §2

[12] = tested on: velvetleaf (Abutilon theophrasti); test: Test G Post-Emergence Protocol; conditions: Abutilon theophrasti, post-emergence, 312 h; for pest or weed control at 15.625 g/ha: 15.625 g ai/ha, evaluated after 13 days (100=total damage to plant; 0=no damage to plant), read-out: Velvetleaf damage rating; for pest or weed control at 62.5 g/ha: 62.5 g ai/ha, read-out: Velvetleaf damage rating (100=total damage to plant; 0=no damage to plant); for pest or weed control at 62.5 g/ha / pest or weed control at 250 g/ha: evaluated after 13 days; for pest or weed control at 250 g/ha: 250 g ai/ha, read-out: damage to plant, Velvetleaf (100=total damage to plant; 0=no damage to plant)
Outline: as §2

SMILES | pest or weed control at 15.625 g/ha [1] [%] | pest or weed control at 62.5 g/ha [1] [%] | pest or weed control at 250 g/ha [1] [%] | plant injury at 15.625 g/ha [2] [%] | plant injury at 62.5 g/ha [2] [%] | plant injury at 250 g/ha [2] [%] | pest or weed control at 15.625 g/ha [3] [%] | pest or weed control at 62.5 g/ha [3] [%] | pest or weed control at 250 g/ha [3] [%] | pest or weed control at 15.625 g/ha [4] [%] | pest or weed control at 62.5 g/ha [4] [%] | pest or weed control at 250 g/ha [4] [%] | pest or weed control at 15.625 g/ha [5] [%] | pest or weed control at 62.5 g/ha [5] [%] | pest or weed control at 250 g/ha [5] [%] | pest or weed control at 15.625 g/ha [6] [%] | pest or weed control at 62.5 g/ha [6] [%] | pest or weed control at 250 g/ha [6] [%] | pest or weed control at 15.625 g/ha [7] [%] | pest or weed control at 62.5 g/ha [7] [%] | also measured
CN1C[C@@H](c2ccc(C(F)(F)F)cc2)[C@H](C(=O)Nc2ccccc2C#N)C1=O (racemic) [Compound 1599] | 0 | 70 | 70 | 0 | 10 | 40 | 20 | 60 | 80 | 10 | 10 | 10 | 0 | 40 | 70 | 0 | 30 | 20 | 10 | 70 | pest or weed control at 250 g/ha [7]: 70%; plant injury at 15.625 g/ha [8]: 0%; plant injury at 62.5 g/ha [8]: 0%; plant injury at 250 g/ha [8]: 40%; pest or weed control at 15.625 g/ha [9]: 60%; pest or weed control at 62.5 g/ha [9]: 80%; pest or weed control at 250 g/ha [9]: 80%; pest or weed control at 15.625 g/ha [10]: 50%; pest or weed control at 62.5 g/ha [10]: 60%; pest or weed control at 250 g/ha [10]: 50%; pest or weed control at 15.625 g/ha [11]: 0%; pest or weed control at 62.5 g/ha [11]: 50%; pest or weed control at 250 g/ha [11]: 50%; pest or weed control at 15.625 g/ha [12]: 0%; pest or weed control at 62.5 g/ha [12]: 30%; pest or weed control at 250 g/ha [12]: 40%
CN1C[C@@H](c2ccc(C(F)(F)F)cc2)[C@H](C(=O)Nc2cccnn2)C1=O (racemic) [Compound 1577] | 0 | 0 | 0 | 0 | 0 | 0 | 0 | 0 | 0 | 0 | 0 | 0 | 0 | 0 | 0 | 0 | 0 | 0 | 0 | 0 | pest or weed control at 250 g/ha [7]: 0%; plant injury at 15.625 g/ha [8]: 0%; plant injury at 62.5 g/ha [8]: 0%; plant injury at 250 g/ha [8]: 0%; pest or weed control at 15.625 g/ha [9]: 0%; pest or weed control at 62.5 g/ha [9]: 0%; pest or weed control at 250 g/ha [9]: 0%; pest or weed control at 15.625 g/ha [10]: 0%; pest or weed control at 62.5 g/ha [10]: 0%; pest or weed control at 250 g/ha [10]: 0%; pest or weed control at 15.625 g/ha [11]: 0%; pest or weed control at 62.5 g/ha [11]: 0%; pest or weed control at 250 g/ha [11]: 0%; pest or weed control at 15.625 g/ha [12]: 0%; pest or weed control at 62.5 g/ha [12]: 0%; pest or weed control at 250 g/ha [12]: 0%
